For assay [1], the system named is U-937. The experiment in a line: Induction of cell attachment in human U-937 cells at more than 10 nM incubated for 72 hrs relative to control. The class given is functional.
The subject of assay [2] is U-937. The experiment in a line: Induction of cell attachment in human U-937 cells at 1 nM incubated for 72 hrs relative to control. The format is functional.
Assay [3] has as its system U-937. The experiment in a line: Growth inhibition of human U-937 cells assessed as reduction in total cell number at 1 nM incubated for 72 hrs. The class given is functional. Conditions: read-out: GI.
In assay [4] the test system is LNCaP. The experiment in a line: Growth inhibition of human LNCaP cells at < 10 nM incubated for 72 hrs. The class given is functional, cell-based.
Assay [5] concerns U-937. The experiment in a line: Induction of cell attachment in human U-937 cells at 1 to 100 nM incubated for 72 hrs relative to control. Conditions: dose 1-100 nM. The class given is functional.
Assay [6] relates to U-937. The experiment in a line: Induction of cell attachment in human U-937 cells at 1 to 100 nM incubated for 72 hrs. The class given is functional, cell-based. The following applies: dose 1-100 nM.
The test system of assay [7] is U-937. The experiment in a line: Induction of cell attachment in human U-937 cells at 100 nM incubated for 72 hrs. The format is functional, cell-based.
Assay [8] concerns LNCaP. The experiment in a line: Growth inhibition of human LNCaP cells at 5 to 1500 nM incubated for 72 hrs. The class given is functional, cell-based. Conditions: dose 5-1500 nM.
Assay [9] deals with Protein kinase C delta type (Homo sapiens, UniProt Q05655). Put plainly: Binding affinity to PKCdelta (unknown origin) assessed as inhibition constant.
In assay [10] the test system is U-937. Put plainly: Induction of cell attachment in human U-937 cells at 1000 nM incubated for 72 hrs relative to control. The format is functional.
Assay [11] deals with U-937. The experiment in a line: Induction of cell attachment in human U-937 cells at 100 nM incubated for 72 hrs relative to control. The class given is functional.
The subject of assay [12] is U-937. The experiment in a line: Growth inhibition of human U-937 cells assessed as reduction in total cell number at 100 nM incubated for 72 hrs. The class given is functional. Conditions: read-out: GI.
Assay [13] concerns U-937. Put plainly: Growth inhibition of human U-937 cells assessed as reduction in total cell number at 1 to 10 nM incubated for 72 hrs. The class given is functional, cell-based. The following applies: dose 1-10 nM.
Assay [14] has as its system U-937. The experiment in a line: Growth inhibition of human U-937 cells assessed as reduction in total cell number at 1000 nM incubated for 72 hrs. The format is functional, cell-based.
Assay [15] relates to LNCaP. Put plainly: Growth inhibition of human LNCaP cells at 1.5 uM incubated for 72 hrs. The class given is functional, cell-based.

Calls of active or inactive are those of the source. No cut-off for these calls is given here.

One may read the Ki as a dissociation constant, usually derived from enzyme kinetics or from competition with a known ligand.

Chain of Protein kinase C delta type (Q05655 whole entry): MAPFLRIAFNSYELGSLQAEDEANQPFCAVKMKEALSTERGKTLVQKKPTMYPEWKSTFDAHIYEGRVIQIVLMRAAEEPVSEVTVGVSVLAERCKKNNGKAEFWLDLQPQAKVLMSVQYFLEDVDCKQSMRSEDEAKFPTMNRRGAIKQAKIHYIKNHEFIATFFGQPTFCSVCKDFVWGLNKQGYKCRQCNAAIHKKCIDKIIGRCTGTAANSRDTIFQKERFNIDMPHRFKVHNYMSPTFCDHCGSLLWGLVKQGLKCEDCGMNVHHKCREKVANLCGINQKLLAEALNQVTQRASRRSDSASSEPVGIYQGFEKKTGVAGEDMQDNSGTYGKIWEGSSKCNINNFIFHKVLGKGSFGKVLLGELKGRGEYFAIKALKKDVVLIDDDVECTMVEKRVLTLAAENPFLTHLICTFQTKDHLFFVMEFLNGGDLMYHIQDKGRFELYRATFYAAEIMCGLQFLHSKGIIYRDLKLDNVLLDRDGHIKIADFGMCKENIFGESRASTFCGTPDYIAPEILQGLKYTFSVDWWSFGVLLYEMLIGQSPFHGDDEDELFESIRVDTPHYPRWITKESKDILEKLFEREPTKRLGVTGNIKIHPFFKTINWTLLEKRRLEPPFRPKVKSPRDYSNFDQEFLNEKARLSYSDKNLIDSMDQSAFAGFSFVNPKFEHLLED

On to `C=C[C@@](C)(CCC=C(C)C)c1ccc2c3c(c[nH]c13)C[C@@H](CO)NC(=O)[C@H](C(C)C)N2C`, for which the Activity in assay [1] was above 60%.
With `CCCCCCCCCCCCCC(=O)O[C@H]1[C@H](C)[C@]2(O)[C@H](C=C(CO)C[C@@]3(O)C(=O)C(C)=C[C@H]23)[C@H]2C(C)(C)[C@@]12OC(C)=O`, in assay [2], the Activity amounted to 85.4%. Further, the inhibition of growth at 0.001 µM in assay [3] was 21.5%. In addition, in assay [4], the “growth inhibition (GI)” value is “Active”.
In turn, `C=CC(C)(C)c1ccc2c3c(c[nH]c13)C[C@@H](CO)NC(=O)[C@H](C(C)C)N2C` [PENDOLMYCIN] returned an Activity in assay [1] above 60%.
Regarding `CC(=O)n1cc2c3c(cccc31)N(C)[C@@H](C(C)C)C(=O)N[C@H](CO)C2`, the Activity in assay [5] is on record as below 2%. Besides, the result in assay [6] was inactive. Also, in [7], the outcome was Active. In addition, in assay [8], the “growth inhibition (GI)” value is “Active”. Moreover, the Ki in assay [9] came to 94 nM.
In the case of `CC(C)[C@H]1C(=O)N[C@H](CO)Cc2c[nH]c3cccc(c23)N1C` [INDOLACTUM], the values for the Activity in assay [10] and in [11] were 70.3% and 44.2%, respectively. For the same compound, the inhibition of growth at 0.1 µM in assay [12] is 25.7%.
The compound `CCC/C=C/C=C/C(=O)O[C@H]1/C(=C/C(=O)OC)C[C@H]2C[C@H]([C@@H](C)O)OC(=O)C[C@H](O)C[C@@H]3C[C@H](OC(C)=O)C(C)(C)[C@](O)(C[C@@H]4C/C(=C/C(=O)OC)C[C@H](/C=C/C(C)(C)[C@]1(O)O2)O4)O3` [BRYOSTATIN 1] registered an Activity in assay [10] of 1.8%. Besides, the “growth inhibition (GI)” value in assay [13] and in assay [15] was “inactive” in each case. Further, the “growth inhibition (GI)” value in assay [14] is “Active”.
For the compound `CC(C)[C@H]1C(=O)N[C@H](CO)Cc2cn(C(C)C)c3cccc(c23)N1C`, the Activity in [10] is given as 6.5%; in assay [5], below 2%. In addition, in assay [6], the result was inactive. Further, the result in assay [7] was Active. For the same compound, the “growth inhibition (GI)” value in assay [8] was “Active”. Moreover, the Ki in [9] is 32 nM.

For the origin of these results see ChEMBL document CHEMBL5584215, “Biological evaluation of indolactams for in vitro bryostatin 1-like activity” (Bioorg Med Chem Lett, 2024).
